Assay results taken from PubChem BioAssay AID1259407 (Chemical Carcinogenesis Research Information System (CCRIS), 2018).
Calls of active or inactive are those of the source. The rule behind the calls is not given here.

System: CCRIS mutagenicity, Ames/micronucleus/aberration tests
Experiment: CCRIS mutagenicity studies
[1] = Test System: AMES SALMONELLA TYPHIMURIUM, Strain/Indicator: TA98, Metabolic Activation: NONE, Method: STANDARD PLATE
[2] = Test System: AMES SALMONELLA TYPHIMURIUM, Strain/Indicator: TA100, Metabolic Activation: NONE, Method: STANDARD PLATE
[3] = Test System: AMES SALMONELLA TYPHIMURIUM, Strain/Indicator: TA97, Metabolic Activation: NONE, Method: PREINCUBATION
[4] = Test System: AMES SALMONELLA TYPHIMURIUM, Strain/Indicator: TA98, Metabolic Activation: HAMSTER, LIVER, S-9, AROCLOR 1254 (10%), Method: PREINCUBATION
[5] = Test System: AMES SALMONELLA TYPHIMURIUM, Strain/Indicator: TA98, Metabolic Activation: NONE, Method: PREINCUBATION
[6] = Test System: AMES SALMONELLA TYPHIMURIUM, Strain/Indicator: TA98, Metabolic Activation: RAT, LIVER, S-9, AROCLOR 1254 (10%), Method: PREINCUBATION
[7] = Test System: AMES SALMONELLA TYPHIMURIUM, Strain/Indicator: TA100, Metabolic Activation: HAMSTER, LIVER, S-9, AROCLOR 1254 (10%), Method: PREINCUBATION
[8] = Test System: AMES SALMONELLA TYPHIMURIUM, Strain/Indicator: TA100, Metabolic Activation: NONE, Method: PREINCUBATION
[9] = Test System: AMES SALMONELLA TYPHIMURIUM, Strain/Indicator: TA100, Metabolic Activation: RAT, LIVER, S-9, AROCLOR 1254 (10%), Method: PREINCUBATION
[10] = Test System: AMES SALMONELLA TYPHIMURIUM, Strain/Indicator: TA1535, Metabolic Activation: HAMSTER, LIVER, S-9, AROCLOR 1254 (10%), Method: PREINCUBATION
[11] = Test System: AMES SALMONELLA TYPHIMURIUM, Strain/Indicator: TA1535, Metabolic Activation: NONE, Method: PREINCUBATION
[12] = Test System: AMES SALMONELLA TYPHIMURIUM, Strain/Indicator: TA1535, Metabolic Activation: RAT, LIVER, S-9, AROCLOR 1254 (10%), Method: PREINCUBATION

Measured: mutagenic call

CC(C)OC(=O)COc1ccc(Cl)cc1Cl
inactive: [1] inactive; negative | Test System: AMES SALMONELLA TYPHIMURIUM, Strain/Indicator: TA98, Metabolic Activation: RAT LIVER S-9, AROCLOR 1254, 10%, Method: STANDARD PLATE inactive; negative | [2] inactive; negative | Test System: AMES SALMONELLA TYPHIMURIUM, Strain/Indicator: TA100, Metabolic Activation: RAT LIVER S-9, AROCLOR 1254, 10%, Method: STANDARD PLATE inactive; negative | Test System: AMES SALMONELLA TYPHIMURIUM, Strain/Indicator: TA1535, Metabolic Activation: NONE, Method: STANDARD PLATE inactive; negative | Test System: AMES SALMONELLA TYPHIMURIUM, Strain/Indicator: TA1535, Metabolic Activation: RAT LIVER S-9, AROCLOR 1254, 10%, Method: STANDARD PLATE inactive; negative | Test System: AMES SALMONELLA TYPHIMURIUM, Strain/Indicator: TA1537, Metabolic Activation: NONE, Method: STANDARD PLATE inactive; negative | Test System: AMES SALMONELLA TYPHIMURIUM, Strain/Indicator: TA1537, Metabolic Activation: RAT LIVER S-9, AROCLOR 1254, 10%, Method: STANDARD PLATE inactive; negative | Test System: AMES SALMONELLA TYPHIMURIUM, Strain/Indicator: TA1538, Metabolic Activation: NONE, Method: STANDARD PLATE inactive; negative | Test System: AMES SALMONELLA TYPHIMURIUM, Strain/Indicator: TA1538, Metabolic Activation: RAT LIVER S-9, AROCLOR 1254, 10%, Method: STANDARD PLATE inactive; negative | Test System: UDS RAT HEPATOCYTES, Strain/Indicator: THYMIDINE INCORPORATION, Metabolic Activation: NONE, Method: AUTORADIOGRAPHY inactive; negative

Oc1cccc(Nc2ccccc2)c1
inactive: Test System: AMES SALMONELLA TYPHIMURIUM, Strain/Indicator: TA97, Metabolic Activation: HAMSTER, LIVER, S-9, AROCLOR 1254 (10%), Method: PREINCUBATION inactive; negative | Test System: AMES SALMONELLA TYPHIMURIUM, Strain/Indicator: TA97, Metabolic Activation: HAMSTER, LIVER, S-9, AROCLOR 1254 (30%), Method: PREINCUBATION inactive; negative | [3] inactive; negative | Test System: AMES SALMONELLA TYPHIMURIUM, Strain/Indicator: TA97, Metabolic Activation: RAT, LIVER, S-9, AROCLOR 1254 (10%), Method: PREINCUBATION inactive; negative | Test System: AMES SALMONELLA TYPHIMURIUM, Strain/Indicator: TA97, Metabolic Activation: RAT, LIVER, S-9, AROCLOR 1254 (30%), Method: PREINCUBATION inactive; negative | [4] inactive; negative | Test System: AMES SALMONELLA TYPHIMURIUM, Strain/Indicator: TA98, Metabolic Activation: HAMSTER, LIVER, S-9, AROCLOR 1254 (30%), Method: PREINCUBATION inactive; negative | [5] inactive; negative | [6] inactive; negative | Test System: AMES SALMONELLA TYPHIMURIUM, Strain/Indicator: TA98, Metabolic Activation: RAT, LIVER, S-9, AROCLOR 1254 (30%), Method: PREINCUBATION inactive; negative | [7] inactive; negative | Test System: AMES SALMONELLA TYPHIMURIUM, Strain/Indicator: TA100, Metabolic Activation: HAMSTER, LIVER, S-9, AROCLOR 1254 (30%), Method: PREINCUBATION inactive; negative | [8] inactive; negative | [9] inactive; negative | Test System: AMES SALMONELLA TYPHIMURIUM, Strain/Indicator: TA100, Metabolic Activation: RAT, LIVER, S-9, AROCLOR 1254 (30%), Method: PREINCUBATION inactive; negative | [10] inactive; negative | Test System: AMES SALMONELLA TYPHIMURIUM, Strain/Indicator: TA1535, Metabolic Activation: HAMSTER, LIVER, S-9, AROCLOR 1254 (30%), Method: PREINCUBATION inactive; negative | [11] inactive; negative | [12] inactive; negative | Test System: AMES SALMONELLA TYPHIMURIUM, Strain/Indicator: TA1535, Metabolic Activation: RAT, LIVER, S-9, AROCLOR 1254 (30%), Method: PREINCUBATION inactive; negative

Cn1cnc2cc([N+](=O)[O-])ccc21
inactive: [1] inactive; negative

COc1cc([N+](=O)[O-])c(O)c(C(C)(C)C)c1
inactive: [1] inactive; negative | Test System: AMES SALMONELLA TYPHIMURIUM, Strain/Indicator: TA98, Metabolic Activation: RAT, LIVER, S-9, AROCLOR 1254, Method: STANDARD PLATE inactive; negative | [2] inactive; negative | Test System: AMES SALMONELLA TYPHIMURIUM, Strain/Indicator: TA100, Metabolic Activation: RAT, LIVER, S-9, AROCLOR 1254, Method: STANDARD PLATE inactive; negative

COC(=O)C(Cl)CCC(Cl)CCCCCC(Cl)CCC(Cl)CCCCCl (stereo not given)
inactive: Test System: AMES SALMONELLA TYPHIMURIUM, Strain/Indicator: TA97, Metabolic Activation: HAMSTER, LIVER, S-9, AROCLOR 1254 (10 OR 30%), Method: PREINCUBATION inactive; negative | [3] inactive; negative | Test System: AMES SALMONELLA TYPHIMURIUM, Strain/Indicator: TA97, Metabolic Activation: RAT, LIVER, S-9, AROCLOR 1254 (10 OR 30%), Method: PREINCUBATION inactive; negative | Test System: AMES SALMONELLA TYPHIMURIUM, Strain/Indicator: TA98, Metabolic Activation: HAMSTER, LIVER, S-9, AROCLOR 1254 (10 OR 30%), Method: PREINCUBATION inactive; negative | [5] inactive; negative | Test System: AMES SALMONELLA TYPHIMURIUM, Strain/Indicator: TA98, Metabolic Activation: RAT, LIVER, S-9, AROCLOR 1254 (10 OR 30%), Method: PREINCUBATION inactive; negative | Test System: AMES SALMONELLA TYPHIMURIUM, Strain/Indicator: TA100, Metabolic Activation: HAMSTER, LIVER, S-9, AROCLOR 1254 (10 OR 30%), Method: PREINCUBATION inactive; negative | [8] inactive; negative | Test System: AMES SALMONELLA TYPHIMURIUM, Strain/Indicator: TA100, Metabolic Activation: RAT, LIVER, S-9, AROCLOR 1254 (10 OR 30%), Method: PREINCUBATION inactive; negative | Test System: AMES SALMONELLA TYPHIMURIUM, Strain/Indicator: TA1535, Metabolic Activation: HAMSTER, LIVER, S-9, AROCLOR 1254 (10 OR 30%), Method: PREINCUBATION inactive; negative | [11] inactive; negative | Test System: AMES SALMONELLA TYPHIMURIUM, Strain/Indicator: TA1535, Metabolic Activation: RAT, LIVER, S-9, AROCLOR 1254 (10 OR 30%), Method: PREINCUBATION inactive; negative

CNCCS(=O)(=O)O
inactive: [4] inactive; negative | [5] inactive; negative | [6] inactive; negative | [7] inactive; negative | [8] inactive; negative | [9] inactive; negative | [10] inactive; negative | [11] inactive; negative | [12] inactive; negative | Test System: AMES SALMONELLA TYPHIMURIUM, Strain/Indicator: TA1537, Metabolic Activation: HAMSTER, LIVER, S-9, AROCLOR 1254 (10%), Method: PREINCUBATION inactive; negative | Test System: AMES SALMONELLA TYPHIMURIUM, Strain/Indicator: TA1537, Metabolic Activation: NONE, Method: PREINCUBATION inactive; negative | Test System: AMES SALMONELLA TYPHIMURIUM, Strain/Indicator: TA1537, Metabolic Activation: RAT, LIVER, S-9, AROCLOR 1254 (10%), Method: PREINCUBATION inactive; negative
